Reference: PubChem BioAssay (NCI)
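Growth conditions: 96-well plates. Treatment: test compound, 48 hours, 5 concentrations. Analysis: linear interpolation between bracketing concentrations; unreached endpoints set to highest concentration. TGI denotes the concentration required for complete inhibition of growth.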

Tests used:
Assay in all cases: NCI tumour cell line growth inhibition, 48 h
SK-MEL-2 melanoma = system: SK-MEL-2 melanoma
BT-549 breast = system: BT-549 breast
IGROV1 ovarian = system: IGROV1 ovarian
DU-145 prostate = system: DU-145 prostate
SF-268 CNS = system: SF-268 CNS
K-562 leukemia = system: K-562 leukemia
HCT-15 colon = system: HCT-15 colon
MALME-3M melanoma = system: MALME-3M melanoma
A498 renal = system: A498 renal
EKVX NSCLC = system: EKVX NSCLC
HCC-2998 colon = system: HCC-2998 colon
SK-OV-3 ovarian = system: SK-OV-3 ovarian
SNB-19 CNS = system: SNB-19 CNS
NCI-H522 lung = system: NCI-H522 lung
MOLT-4 leukemia = system: MOLT-4 leukemia
SW-620 colon = system: SW-620 colon
NCI-H23 lung = system: NCI-H23 lung
HL-60(TB) leukemia = system: HL-60(TB) leukemia
U251 CNS = system: U251 CNS
SF-539 CNS = system: SF-539 CNS
SNB-75 CNS = system: SNB-75 CNS
KM12 colon = system: KM12 colon
UACC-62 melanoma = system: UACC-62 melanoma
SK-MEL-5 melanoma = system: SK-MEL-5 melanoma
SN12C renal = system: SN12C renal
NCI-H460 lung = system: NCI-H460 lung
HT29 colon = system: HT29 colon
RPMI-8226 leukemia = system: RPMI-8226 leukemia
786-0 renal = system: 786-0 renal
ACHN renal = system: ACHN renal
A549 NSCLC = system: A549 NSCLC
HCT-116 colon = system: HCT-116 colon
CAKI-1 renal = system: CAKI-1 renal
SR leukemia = system: SR leukemia
PC-3 prostate = system: PC-3 prostate
RXF 393 renal = system: RXF 393 renal
TK-10 renal = system: TK-10 renal
OVCAR-8 ovarian = system: OVCAR-8 ovarian
SF-295 CNS = system: SF-295 CNS
NCI-H226 lung = system: NCI-H226 lung
UACC-257 melanoma = system: UACC-257 melanoma
MCF7 breast = system: MCF7 breast
UO-31 renal = system: UO-31 renal
M14 melanoma = system: M14 melanoma
COLO 205 colon = system: COLO 205 colon
OVCAR-5 ovarian = system: OVCAR-5 ovarian
CCRF-CEM leukemia = system: CCRF-CEM leukemia
HOP-62 NSCLC = system: HOP-62 NSCLC
SK-MEL-28 melanoma = system: SK-MEL-28 melanoma
NCI/ADR-RES ovarian = system: NCI/ADR-RES ovarian
OVCAR-3 ovarian = system: OVCAR-3 ovarian

SMILES: COc1c(Br)cc(/C=C(\C#N)c2ccccn2)cc1Br
- TGI (SK-MEL-2 melanoma): 41.8 µM
- TGI (BT-549 breast): 94.8 µM
- TGI (IGROV1 ovarian): > 100 µM
- TGI (DU-145 prostate): > 100 µM
- TGI (SF-268 CNS): > 100 µM
- TGI (K-562 leukemia): > 100 µM
- TGI (HCT-15 colon): > 100 µM
- TGI (MALME-3M melanoma): > 100 µM
- TGI (A498 renal): 9.57 µM
- TGI (EKVX NSCLC): 50.9 µM
- TGI (HCC-2998 colon): > 100 µM
- TGI (SK-OV-3 ovarian): > 100 µM
- TGI (SNB-19 CNS): > 100 µM
- TGI (NCI-H522 lung): > 100 µM
- TGI (MOLT-4 leukemia): > 100 µM
- TGI (SW-620 colon): > 100 µM
- TGI (NCI-H23 lung): > 100 µM
- TGI (HL-60(TB) leukemia): > 100 µM
- TGI (U251 CNS): > 100 µM
- TGI (SF-539 CNS): > 100 µM
- TGI (SNB-75 CNS): 17.1 µM
- TGI (KM12 colon): > 100 µM
- TGI (UACC-62 melanoma): 73.8 µM
- TGI (SK-MEL-5 melanoma): > 100 µM
- TGI (SN12C renal): > 100 µM
- TGI (NCI-H460 lung): > 100 µM
- TGI (HT29 colon): > 100 µM
- TGI (RPMI-8226 leukemia): > 100 µM
- TGI (786-0 renal): 25.6 µM
- TGI (ACHN renal): > 100 µM
- TGI (A549 NSCLC): > 100 µM
- TGI (HCT-116 colon): > 100 µM
- TGI (CAKI-1 renal): > 100 µM
- TGI (SR leukemia): > 100 µM
- TGI (PC-3 prostate): > 100 µM
- TGI (RXF 393 renal): 75.1 µM
- TGI (TK-10 renal): > 100 µM
- TGI (OVCAR-8 ovarian): > 100 µM
- TGI (SF-295 CNS): > 100 µM
- TGI (NCI-H226 lung): > 100 µM
- TGI (UACC-257 melanoma): > 100 µM
- TGI (MCF7 breast): > 100 µM
- TGI (UO-31 renal): > 100 µM
- TGI (M14 melanoma): > 100 µM
- TGI (COLO 205 colon): > 100 µM
- TGI (OVCAR-5 ovarian): > 100 µM
- TGI (CCRF-CEM leukemia): > 100 µM
- TGI (HOP-62 NSCLC): 89.1 µM
- TGI (SK-MEL-28 melanoma): > 100 µM
- TGI (NCI/ADR-RES ovarian): > 100 µM
- TGI (OVCAR-3 ovarian): > 100 µM
